For one test, the target named is T1, human CA-IX (Homo sapiens, UniProt Q16790).
T1 construct: purchased R&D Systems Inc. 2188-CA-010
Kind of test: Carbonic Anhydrase-IX (CA-IX) Fluorescence Polarization Assay-IC50 Determination. The format is binding. As to conditions: read-out: CAIX IC50. The procedure:
Carbonic Anhydrase-IX (CA-IX) Fluorescence Polarization Assay-IC50 Determination
Compounds were diluted in DMSO at the concentration of 1 mM, then 50 μM and transferred to a 96-well plate for further dilutions (1:3 dilution, 11 points) in duplicate. Final compound highest concentration in CA-IX FP assay is 1 μM. Assays were conducted in a final volume of 100 μL in 50 mM Tris/HCl (pH 7.6), 100 mM Na2SO4 and 0.005% Tween-20 in a 96-well black assay. plate. […] was used as the tracer. Binding inhibition was determined by pipetting 8 μL of human CA-IX (8 nM, R&D Systems Inc. Cat#2188-CA-010) into assay plate contained 2 μL of compound and 2 μL of tracer (2 nM) in 88 μL of assay buffer. The assay plate was incubated at room temperature for 30 minutes and read in the fluorescence polarization reader (Molecular Devices, Analyst) at 524/45 nm (excitation), 595/60 nm (emission) and 561 nm (bean splitter). […] GraphPad Prism or similar in-house software with the IC50 curve fitting using the four parameter logistic equation.

For a further test, the target named is T2, human CA-IV (Homo sapiens, UniProt P22748).
T2 construct: made in house; host or cells: Escherichia coli BL21(DE3)
T2 sequence (P22748 19-284 limits assumed): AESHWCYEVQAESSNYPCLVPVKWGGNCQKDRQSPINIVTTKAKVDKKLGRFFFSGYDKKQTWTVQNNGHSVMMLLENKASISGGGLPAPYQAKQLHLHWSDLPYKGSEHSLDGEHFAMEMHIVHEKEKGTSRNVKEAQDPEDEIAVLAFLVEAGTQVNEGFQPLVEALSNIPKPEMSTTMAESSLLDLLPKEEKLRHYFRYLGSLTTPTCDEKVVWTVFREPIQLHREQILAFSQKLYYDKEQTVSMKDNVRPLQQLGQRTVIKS
Kind of test: Carbonic Anhydrase-IV (CA-IV) Fluorescence Polarization Assay-IC50 Determination. Format: binding. As to conditions: for inhibition at 0.2 µM: read-out: CA-IV: % Inh @ Min dose. The method, boiled down: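 IC50 values come from a fluorescence polarization read-out. The CA-IV protein was zinc-supplemented during expression and purified by cation exchange then gel filtration, ending in 25 mM Tris-HCl pH 7.0 with 100 mM NaCl at 7.0 mg/mL.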

A further test has as its target T3, human CA-XII (Homo sapiens, UniProt O43570).
T3 construct: made in house; host or cells: Escherichia coli AD494 (DE3)
Nature of the test: Carbonic Anhydrase-XII (CA-XII) Fluorimetric Assay-IC50 Determination. Format: biochemical. To be noted: for inhibition at 1 µM: read-out: % inh CAXII @ 1 uM; for IC50: read-out: CAXII IC 50. The procedure: Carbonic Anhydrase-XII (CA-XII) Fluorimetric Assay-IC50 Determination
The cells were grown in LB (Biomyx) supplemented with 800 uM ZnCl2 at 37° C. until an O.D.600 of 0.7, at which point the cells were induced with 100 uM IPTG for 20 hours at 20° C. The frozen pellet was resuspended in 50 mM MES pH 6.0, 100 mM NaCl, 800 uM ZnCl2 and EDTA-Free protease inhibitors (Roche). The cells were lysed with a microfluidizer and the lysate was spun at 40,000 rpm for 45 minutes at 4° C. The soluble fraction was then put over a 100 ml SP-Sepharose High Performance (GE Healthcare) column and eluted with a 50 mM MES pH 6.0, 750 mM NaCl gradient.
Compounds were diluted in DMSO at the concentration of 1 mM, then 50 μM and transferred to a 96-well plate for further dilutions (1:3 dilution, 11 points) in duplicate. Final compound highest concentration in CA-XII Fluorimetric assay is 1 μM. Assays were conducted in a final volume of 100 μL in 50 mM Tris/HCl (pH 7.6), 100 mM Na2SO4 and 0.005% Tween-20 in a 96-well black assay plate. Fluorescein diacetate was used as the substrate. Enzyme inhibition was determined by pipetting 8 μL of human CA-XII (50 nM) into assay plate contained 2 μL of compound and 2 μL of substrate (10 μM) in 88 μL of assay buffer.

Test [1] has as its target T4, human CA-II (Homo sapiens, UniProt P00918).
T4 construct: purchased Sigma-Aldrich C6165
Nature of the test: Carbonic Anhydrase-II (CA-II) Fluorimetric Assay-IC50 Determination. The format is biochemical. To be noted: for inhibition at 0.0025 µM: Min dose 2.5 nM; for inhibition at 0.1 µM: CA II Min dose 100 nM. The method, boiled down:
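Enzyme activity is read fluorimetrically at 25° C (ex 488 nm / em 538 nm) as the rate at which human CA-II hydrolyses fluorescein diacetate. The buffer is Tris/HCl (50 mM, pH 7.6) with 100 mM Na2SO4 and 0.005% Tween-20. Inhibitors run in duplicate over 11 threefold dilutions, […]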

The target in test [2] is T4, human CA-II. Kind of test: Carbonic Anhydrase-II (CA-II) Fluorescence Polarization Tight Binding Assay-Kd Determination. To be noted: read-out: CA-II Kd. The procedure: Assays were conducted in a final volume of 100 μL in 50 mM Tris/HCl (pH 7.6), 100 mM Na2SO4 and 0.005% Tween-20 in a 96-well black assay plate. […] The assay plate was
The Kd binding was calculated using GraphPad Prism and Morrison tight binding ligand equation.
A general note: Polarisation of emitted light reports the rotation of a fluorescent probe.

Where [3] appears, read: read-out: CAII % Inh @ Min dose.

Where two headings read alike, the source gives them in different places.

T3 sequence (O43570 30-289 limits assumed): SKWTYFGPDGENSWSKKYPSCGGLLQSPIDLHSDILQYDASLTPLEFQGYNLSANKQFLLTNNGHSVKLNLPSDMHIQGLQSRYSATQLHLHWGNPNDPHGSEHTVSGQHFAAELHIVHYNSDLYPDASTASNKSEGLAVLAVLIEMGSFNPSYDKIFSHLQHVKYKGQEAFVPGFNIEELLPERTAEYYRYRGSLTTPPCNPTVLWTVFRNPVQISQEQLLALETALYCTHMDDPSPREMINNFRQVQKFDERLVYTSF

As to `Cc1cccc(Cc2nc(CN(C)C3CCCC3)nn2-c2ccc(S(N)(=O)=O)cc2F)c1` [Example F-1ak], the IC50 at human CA-IX turned out to be 3.83 nM.

For `CCCN(C)Cc1nc(Cc2cccc(C)c2)n(-c2ccc(S(N)(=O)=O)cc2F)n1` [Example F-1aj, 3-fluoro-4-[5-(3-methylbenzyl)-3-{[methyl(propyl)amino]methyl}-1H-1,2,4-triazol-1-yl]benzenesulfonamide], the IC50 on human CA-IX is 4.32 nM.

In the case of `Cc1nc(Cc2cccc(F)c2)n(-c2ccc(S(N)(=O)=O)cc2)n1` [f-3a, 4-[5-(3-fluorobenzyl)-3-methyl-1H-1,2,4-triazol-1-yl]benzenesulfonamide], the IC50 at human CA-IX is 36.9 nM.

For `NS(=O)(=O)c1ccc(-n2nc(CN3CC=CCC3)nc2Cc2cccc(Br)c2)cc1` [Example F-1z, 4-[5-(3-bromobenzyl)-3-(3,6-dihydropyridin-1(2H)-ylmethyl)-1H-1,2,4-triazol-1-yl]benzenesulfonamide], the IC50 at human CA-IX was found to be 7.99 nM.

As for `CCOC(=O)c1cc(C)n(-c2ccc(S(N)(=O)=O)cc2)n1` [GG-1, Ethyl 1-[4-(Aminosulfonyl)phenyl]-5-methyl-1H-pyrazole-3-carboxylate], the IC50 at human CA-IV (read-out: IC50_CAIV) is at least 5000 nM; on human CA-XII it was 896 nM. For the same compound, the inhibition at 1 µM on human CA-XII amounted to 51%.

`CN(CCc1ccccc1)C(=O)c1nc(Cc2ccccc2)n(-c2ccc(S(N)(=O)=O)cc2F)n1` [Example A-1d, 1-[4-(aminosulfonyl)-2-fluorophenyl]-5-benzyl-N-methyl-N-(2-phenylethyl)-1H-1,2,4-triazole-3-carboxamide]: at human CA-IX, the IC50 amounted to 2.94 nM.

For the compound `Cc1nc(C(=O)O)nn1-c1ncc(S(N)(=O)=O)cn1` [Example I-5b, 1-[5-(aminosulfonyl)pyrimidin-2-yl]-5-methyl-1H-1,2,4-triazole-3-carboxylic acid], the figures for the IC50 on human CA-II [1] (read-out: IC50—CAII), at human CA-IV (read-out: IC50_CAIV) and at human CA-XII were 57.9 nM, over 1000 nM and over 1000 nM, respectively. Also, at human CA-XII, the inhibition at 1 µM was found to be 46%.

Take `CCCCN(C)C(=O)c1nc(Cc2ccccc2)n(-c2ccc(S(N)(=O)=O)cc2F)n1`: the IC50 at human CA-IX stood at 2.79 nM.

For `Cc1cc(C(=O)N2CCN(C)CC2)nn1-c1ccc(S(N)(=O)=O)cn1` [MM-1c, 6-{5-methyl-3-[(4-methylpiperazin-1-yl)carbonyl]-1H-pyrazol-1-yl}pyridine-3-sulfonamide], the figures for the IC50 on human CA-IV (read-out: IC50_CAIV) and on human CA-XII were 2950 nM and 166 nM, respectively. Further, at human CA-XII, the inhibition at 1 µM came to 86%.

For `CN(Cc1nc(Cc2ccccc2)n(-c2ccc(S(N)(=O)=O)cc2F)n1)C1CCCCC1` [Example F-1aq, 4-(5-benzyl-3-{[cyclohexyl(methyl)amino]methyl}-1H-1,2,4-triazol-1-yl)-3-fluorobenzenesulfonamide], the IC50 at human CA-IX was found to be 9.41 nM.

As for `NS(=O)(=O)c1ccc(-n2nc(C(=O)O)nc2Cc2ccccc2)cc1` [a-5, 1-[4-(Aminosulfonyl)phenyl]-5-benzyl-1H-1,2,4-triazole-3-carboxylic acid], at human CA-XII, the inhibition at 1 µM was determined as 99% and the IC50 worked out at 25.8 nM.

As to `CN(CCc1ccccc1)Cc1cn(Cc2ccccc2F)c(-c2ccc(S(N)(=O)=O)cc2)n1` [CCC-1a, 4-(1-(2-fluorobenzyl)-4-{[methyl(2-phenylethyl)amino]methyl}-1H-imidazol-2-yl)benzenesulfonamide], the IC50 at human CA-IX stood at 39.3 nM.

With `C[C@@H]1CN(Cc2nc(Cc3ccccc3)n(-c3ccc(S(N)(=O)=O)cc3F)n2)C[C@H](C)O1` [Example F-1, 4-(5-Benzyl-3-{[2,6-cis-dimethylmorpholin-4-yl]methyl}-1H-1,2,4-triazol-1-yl)-3-fluorobenzenesulfonamide], the IC50 on human CA-IX was found to be 26.1 nM.

In the case of `CCOC(=O)c1nn(-c2ccc(S(N)(=O)=O)cc2)c2c1CNCC2` [EE-1g, ethyl 1-[4-(aminosulfonyl)phenyl]-4,5,6,7-tetrahydro-1H-pyrazolo[4,3-c]pyridine-3-carboxylate], at human CA-XII, the inhibition at 1 µM came out at 31% and the IC50 is over 1000 nM.

With `CCOC(=O)c1nc(Cc2ccccc2)n(-c2ccc(S(N)(=O)=O)cc2)n1` [a-4, Ethyl 1-[4-(Aminosulfonyl)phenyl]-5-benzyl-1H-1,2,4-triazole-3-carboxylate], at human CA-XII, the inhibition at 1 µM turned out to be 95% and the IC50 stood at 73.8 nM.

As usually defined, the Kd is the constant that tells how readily two partners part at equilibrium. As for `CC1(C)COCN1C(=O)c1nc(Cc2ccccc2)n(-c2ccc(S(N)(=O)=O)cc2)n1` [Example R-6, 4-(5-benzyl-3-[(44-dimethyl-13-oxazolidin-3-yl)carbonyl]-1H-124-triazol-1-yl)benzenesulfonamide], the inhibition at 0.01 µM on human CA-II [1] (CA II Min dose 10 nM, read-out: CAII % Inh @ Min dose) is 97%. For the same compound, the Kd on human CA-II [2] is 0.325 nM. In addition, the inhibition at 0.2 µM on human CA-IV (CA-IV Min dose 200 nM) is 58.2%. In addition, at human CA-IV (read-out: CA-IV IC50), the IC50 turned out to be 180 nM.

As for `Cc1ccc(C)c(Cn2cc(C(F)(F)F)nc2-c2ccc(S(N)(=O)=O)cc2)c1` [JJJ-1, 4-[1-(25-dimethylbenzyl)-4-(trifluoromethyl)-1H-imidazol-2-yl]benzenesulfonamide], on human CA-II [1] (setting [3]), the inhibition at 0.0025 µM amounted to 46%. Further, the Kd at human CA-II [2] was determined as 0.608 nM. For the same compound, the inhibition at 0.2 µM on human CA-IV (Min dose 200 nM) amounted to 56%. Moreover, the IC50 at human CA-IV (read-out: CA-IV IC50) was determined as 130 nM.

As for `Cc1cc(C(=O)N(C)C)nn1-c1ccc(S(N)(=O)=O)cn1` [MM-1b, 1-[5-(aminosulfonyl)pyridin-2-yl]-N,N,5-trimethyl-1H-pyrazole-3-carboxamide], the IC50 at human CA-IV (read-out: IC50_CAIV) was 2390 nM. Besides, at human CA-XII, the inhibition at 1 µM was found to be 96% and the IC50 stood at 66.5 nM.

Regarding `NS(=O)(=O)c1ccc(-n2nc(CN3CCOCC3)c3c2CCCC3)cc1` [II-1b, 4-[3-(morpholin-4-ylmethyl)-4,5,6,7-tetrahydro-1H-indazol-1-yl]benzenesulfonamide], the IC50 on human CA-IV (read-out: IC50_CAIV) was at least 5000 nM. Further, on human CA-XII, the inhibition at 1 µM amounted to 89% and the IC50 came to 119 nM.

For the compound `Cc1cc(Cn2cc(C(F)(F)F)nc2-c2ccc(S(N)(=O)=O)cc2)ccc1F` [JJJ-2, 4-[1-(4-fluoro-3-methylbenzyl)-4-(trifluoromethyl)-1H-imidazol-2-yl]benzenesulfonamide], the inhibition at 0.0025 µM at human CA-II [1] (setting [3]) worked out at 37%. Also, the Kd on human CA-II [2] was determined as 0.552 nM. In addition, the inhibition at 0.2 µM on human CA-IV (Min dose 200 nM) worked out at 45%. Also, the IC50 at human CA-IV (read-out: CA-IV IC50) came to 309 nM.

Consider `CN(C)[C@H]1CCN(C(=O)c2nc(Cc3ccccc3)n(-c3ccc(S(N)(=O)=O)cc3)n2)C1` [Example R-23, 4-(5-benzyl-3-{[(3S)-3-(dimethylamino)pyrrolidin-1-yl]carbonyl}-1H-124-triazol-1-yl)benzenesulfonamide], for which the inhibition at 0.1 µM at human CA-II [1] (setting [3]) is 99%. Also, the Kd at human CA-II [2] came to 0.294 nM. For the same compound, the inhibition at 0.2 µM on human CA-IV (CA-IV Min dose 200 nM) amounted to 40.3%. The IC50 at human CA-IV (read-out: CA-IV IC50) came out at 376 nM.

In the case of `CCCCCN(C)C(=O)c1nc(Cc2ccccc2)n(-c2ccc(S(N)(=O)=O)cc2)n1` [Example R-1, 1-[4-(aminosulfonyl)phenyl]-5-benzyl-N-methyl-N-pentyl-1H-124-triazole-3-carboxamide], the inhibition at 0.1 µM on human CA-II [1] (setting [3]) was 100%. Also, the Kd on human CA-II [2] is 0.56 nM. At human CA-IV (CA-IV Min dose 200 nM), the inhibition at 0.2 µM is 68.6%. Moreover, on human CA-IV (read-out: CA-IV IC50), the IC50 is 86 nM.

These data come from US20100256357A1, “HETEROCYCLES USEFUL AS INHIBITORS OF CARBONIC ANHYDRASE” (Agouron Pharmaceuticals, Inc., priority 2006, published 2010).
